Tests used:
[1] = tested on: mild permanent cognitive and short term memory loss; test: Case study Patient 1: mild permanent cognitive and short term memory loss after mold exposure; format: in vivo, human
Protocol: A case study of a patient having a long history of allergies was performed.
A typical dosage of the Singulair® is about 10 mg.
A 10 mg tablet can be taken orally upon awakening. […] In a typical implementation, the patient can take another 10 mg dose in about two hours after the initial dose. […] Similar booster dosages can be taken at 3-4 hour intervals throughout the day. […] The Singulair® product typically recommends 10 mg per day.
In another embodiment, a zafirlukast product such as Accolate® and Vanticon® can be implemented. In one implementation, a 20 mg oral dose can be taken upon awakening followed by a 10 mg dose after 2 hours and a 10 mg repeated dose in 4 hours and a final dose of 20 mg another 4 hours later. […] The Accolate® recommended dosage is 20 mg in the morning and evening.

[2] = tested on: decreased concentration and focus, memory recall and forgetfulness issues; test: Case study Patient 4: person with decreased concentration, focus and memory recall, plus depression and anxiety; format: in vivo, human; settings: 10 mg in the morning along with an antidepressant, additional 10 mg about every 2 hours during waking hours
Source text: A person with symptoms of decreased concentration and focus along with memory recall and forgetfulness issues. The patient was also diagnosed with depression and anxiety.

[3] = tested on: symptoms of cognitive ailments; test: Case study Patient 6: person with cognitive ailments, single morning dose; format: in vivo, human
[4] = tested on: symptoms of cognitive ailments; settings: Patient 3
[5] = tested on: memory loss, cognitive, emotional ailments
Protocol: In most cases, treatment of these ailments requires multiple dosages of 5 mg to 20 mg over the course of the day.

[6] = tested on: mild symptoms of forgetfulness; test: Case study Patient 2: person with mild symptoms of forgetfulness
[7] = tested on: forgetfulness and problems with word recall; test: Case study Patient 5: person with forgetfulness and word recall problems

COc1cc(C(=O)NS(=O)(=O)c2ccccc2C)ccc1Cc1cn(C)c2ccc(NC(=O)OC3CCCC3)cc12 [Accolate®, zafirlukast]
focus and disposition ([1]; Patient 1, oral 20 mg upon awakening, 10 mg after 2 hours, 10 mg after 4 hours, 20 mg 4 hours later, highest daily dosage 80 mg): heightened focus but results in a less “wired” disposition

CC(C)(O)c1ccccc1CC[C@@H](SCC1(CC(=O)[O-])CC1)c1cccc(/C=C/c2ccc3ccc(Cl)cc3n2)c1.[Na+] [montelukast sodium]
time to relief / marked improvement after the initial higher dosage ([1]; Patient 1, 20-30 mg upon waking): 30 to 45 min
apathy ([1]; Patient 1, about 20-30 mg): marked decrease in apathy
sense of humor ([1]; Patient 1, about 20-30 mg): increase in sense of humor
cognitive, mental and emotional improvement ([1]; Patient 1, about 20-30 mg (2-3 times the typical dosage)): marked cognitive, mental and emotional improvement
effect of additional doses on relief ([1]; Patient 1, additional 10 mg dose every four hours): continues the relief
time to return of symptoms after ceasing the dosage ([1]; Patient 1, after the dosage is ceased): ≤ 24 h
cognitive effect when taking the medication ([1]; Patient 1, as prescribed for allergies, typical dosage about 10 mg): cognitive improvement
mental state under mega-dosing ([1]; booster dosages of 5 mg about every 2 hours, maximum 40 mg in one day): very talkative mental states and highly sensitive mental alertness
symptoms [2]: significant improvement in symptoms
mental clarity and mood ([3]; 50 mg once upon rising in the morning): improved mental clarity in the morning and better mood throughout the day
mental clarity and mood ([3]; 80 mg once upon rising in the morning): improved mental clarity in the morning and better mood throughout the day
side effects [4]: No side effects noted
symptoms while on medication ([4]; 10 mg in the morning, additional 10 mg about every 2 hours during waking hours): significant improvement in symptoms
mood with large immediate release dosages ([5]; immediate release dosages larger than 30 mg): improved mood
effect on ailments (overall finding) ([5]; in most cases multiple dosages of 5 mg to 20 mg over the day): alleviate and treat memory loss, forgetfulness, apathy, emotional and cognitive ailments, and depression
side effects [6]: No side effects reported
time to improvement in symptoms after onset of medication use ([6]; 20 mg in the morning, additional 10-20 mg about every 2 hours during waking hours): ≤ 24 h
symptoms after stopping second course ([6]; after the five-day course was stopped): the symptoms returned again
time to recurrence of symptoms after discontinuation ([6]; stopped after over a week): ≤ 24 h
symptoms during second course ([6]; two weeks later, same regimen for five days): marked improvement in symptoms
other side effects [7]: No other side effects noted
time to improvement after initiation of the protocol [7]: ≤ 24 h
memory and recall issues ([7]; 10 mg in the morning, additional 10 mg about every 2 hours during waking hours, five days): significant improvement in memory and recall issues
sleep (side effect) at 6 doses daily ([7]; 6 doses of 10 mg daily): difficulty sleeping
time to recurrence of symptoms after discontinuation ([7]; discontinued after five days): 24 to 48 h
sleep (side effect) at five doses daily ([7]; schedule reduced to five doses daily): the problem was resolved

— patent publication US9149472B2, “Controlled release compositions for treatment of cognitive, emotional and mental ailments and disorders” (priority 2004, dated 2015)
